Experimental data: US20250340574A1, “MODULATORS OF CYSTIC FIBROSIS TRANSMEMBRANE CONDUCTANCE REGULATOR” (Vertex Pharmaceuticals Incorporated, priority 2022, published 2025)
pEC50: −log10 of the molar value.

What was measured:
Type in all cases: cell-based
[1] = target: T1, CFTR (F508del/MF-HBE cells) (Homo sapiens, UniProt P13569, DEL508-508); experiment: Ussing chamber assay of CFTR-mediated short-circuit currents, Assay A (0.1 μM to 25 μM, 6 concentrations); settings: with 33 nM potentiator and 18 μM Tezacaftor, 20% human serum; for Emax: 18-24 hours, read-out: A Max activity (%)
T1 construct: human bronchial epithelial (HBE) cells derived from CF subjects heterozygous for F508del and a minimal function CFTR mutation (F508del/MF-HBE); endogenous in cells; host or cells: Primary human bronchial epithelial cells from CF subjects (F508del/MF genotype), differentiated at an air-liquid interface
T1 sequence (P13569 with tags, fused parts or gaps DEL508-508): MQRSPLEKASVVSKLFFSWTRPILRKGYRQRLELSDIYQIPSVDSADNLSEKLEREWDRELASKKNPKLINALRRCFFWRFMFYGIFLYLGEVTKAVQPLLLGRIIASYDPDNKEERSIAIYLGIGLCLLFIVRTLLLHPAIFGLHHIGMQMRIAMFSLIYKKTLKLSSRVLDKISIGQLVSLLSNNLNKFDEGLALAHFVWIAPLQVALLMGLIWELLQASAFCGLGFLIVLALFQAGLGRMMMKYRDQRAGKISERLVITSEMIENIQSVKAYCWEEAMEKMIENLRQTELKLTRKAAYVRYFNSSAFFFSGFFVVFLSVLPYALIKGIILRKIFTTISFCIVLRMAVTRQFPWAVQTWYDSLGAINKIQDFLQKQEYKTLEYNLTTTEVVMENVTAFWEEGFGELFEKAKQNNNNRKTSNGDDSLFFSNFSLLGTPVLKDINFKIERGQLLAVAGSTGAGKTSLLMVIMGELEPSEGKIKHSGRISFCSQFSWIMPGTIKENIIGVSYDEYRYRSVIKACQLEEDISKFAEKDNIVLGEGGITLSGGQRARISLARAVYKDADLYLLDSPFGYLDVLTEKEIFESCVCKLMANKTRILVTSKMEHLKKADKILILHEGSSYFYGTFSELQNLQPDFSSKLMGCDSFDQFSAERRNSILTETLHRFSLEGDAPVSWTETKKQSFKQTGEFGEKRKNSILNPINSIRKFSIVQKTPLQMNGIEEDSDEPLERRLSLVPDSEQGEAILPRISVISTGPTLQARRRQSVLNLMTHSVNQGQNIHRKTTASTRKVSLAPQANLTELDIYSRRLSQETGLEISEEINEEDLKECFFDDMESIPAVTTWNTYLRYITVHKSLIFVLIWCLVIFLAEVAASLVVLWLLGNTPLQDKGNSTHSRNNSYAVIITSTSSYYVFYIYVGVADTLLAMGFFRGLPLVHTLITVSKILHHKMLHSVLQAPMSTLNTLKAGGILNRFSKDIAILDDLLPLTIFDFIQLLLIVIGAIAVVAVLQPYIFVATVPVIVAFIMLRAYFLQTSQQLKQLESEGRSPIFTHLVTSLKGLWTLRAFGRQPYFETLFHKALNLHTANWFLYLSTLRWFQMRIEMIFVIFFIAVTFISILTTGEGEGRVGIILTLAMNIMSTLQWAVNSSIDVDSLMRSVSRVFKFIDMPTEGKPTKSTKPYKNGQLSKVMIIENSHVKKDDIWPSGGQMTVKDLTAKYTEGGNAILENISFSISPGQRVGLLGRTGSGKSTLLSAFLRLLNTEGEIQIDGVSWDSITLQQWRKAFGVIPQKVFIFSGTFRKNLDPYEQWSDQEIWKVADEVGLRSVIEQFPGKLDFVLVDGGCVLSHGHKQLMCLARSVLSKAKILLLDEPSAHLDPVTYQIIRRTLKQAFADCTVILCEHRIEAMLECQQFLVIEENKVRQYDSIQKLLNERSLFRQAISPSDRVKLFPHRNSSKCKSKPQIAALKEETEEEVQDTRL
Procedure: Ussing chamber experiments were performed using human bronchial epithelial (HBE) cells derived from CF subjects heterozygous for F508del and a minimal function CFTR mutation (F508del/MF-HBE) and cultured as previously described (Neuberger T, Burton B, Clark H, Van Goor F Methods Mol Biol 2011:741:39-54). After four days the apical media was removed, and the cells were grown at an air liquid interface for >14 days prior to use.
To isolate the CFTR-mediated short-circuit (ISC) current, F508del/MF-HBE grown on Costar® Snapwell™ cell culture inserts were mounted in an Ussing chamber and the transepithelial ISC was measured under voltage-clamp recording conditions (Vhold=0 mV) at 37° C. The basolateral solution contained (in mM) 145 NaCl, 0.83 K2HPO4, 3.3 KH2PO4, 1.2 MgCl2, 1.2 CaCl2, 10 Glucose, 10 HEPES (pH adjusted to 7.4 with NaOH) and the apical solution contained (in mM) 145 NaGluconate, 1.2 MgCl2, 1.2 CaCl2, 10 glucose, 10 HEPES (pH adjusted to 7.4 with NaOH) and 30 μM amiloride to block the epithelial sodium channel. Forskolin (20 μM) was added to the apical surface to activate CFTR, followed by apical addition of a CFTR inhibitor cocktail consisting of BPO, GlyH-101, and CFTR inhibitor 172 (each at 20 μM final assay concentration) to specifically isolate CFTR currents. The CFTR-mediated ISC (μA/cm^2) for each condition was determined from the peak forskolin response to the steady-state current following inhibition.
The activity of the CFTR corrector compounds on the CFTR-mediated ISC was determined in Ussing chamber studies as described above. The F508del/MF-HBE cell cultures were either incubated with the corrector compounds at a range of concentrations in combination with 33 nM (6R,12R)-17-amino-12-methyl-6,15-bis(trifluoromethyl)-13,19-dioxa-3,4,18-triazatricyclo[12.3.1.12,5]nonadeca-1(18),2,4,14,16-pentaen-6-ol and 18 μM Tezacaftor or were incubated with the corrector compounds at a single fixed concentration of 1 μM in combination with 44 nM (6R,12R)-17-amino-12-methyl-6,15-bis(trifluoromethyl)-13,19-dioxa-3,4,18-triazatricyclo[12.3.1.12,5]nonadeca-1(18),2,4,14,16-pentaen-6-ol and 18 μM Tezacaftor for 18-24 hours at 37° C. and in the presence of 20% human serum. The concentration of corrector compounds with 44 nM or 33 nM (6R,12R)-17-amino-12-methyl-6,15-bis(trifluoromethyl)-13,19-dioxa-3,4,18-triazatricyclo[12.3.1.12,5]nonadeca-1(18),2,4,14,16-pentaen-6-ol and 18 μM Tezacaftor during the 18-24 hours incubations was kept constant throughout the Ussing chamber measurement of the CFTR-mediated ISC to ensure compounds were present throughout the entire experiment. The efficacy and potency of the putative F508del correctors was compared to that of the known Vertex corrector, (14S)-8-[3-(2-{Dispiro[2.0.2.1]heptan-7-yl}ethoxy)-1H-pyrazol-1-yl]-12,12-dimethyl-2λ^6-thia-3,9,11,18,23-pentaazatetracyclo[17.3.1.111,14.05,10]tetracosa-1(22),5,7,9,19(23),20-hexaene-2,2,4-trione, in combination with 18 μM Tezacaftor and 1 μM Ivacaftor.
• Assay A: 0.1 μM to 25 μM, 6 concentrations • Assay B: 0.00001 μM to 25 μM, 12 concentrations • Assay C: 0.026 μM to 25 μM, 6 concentrations • Assay D: Activity at single concentration of 1 μM

[2] = target: T1, CFTR (F508del/MF-HBE cells); experiment: Ussing chamber assay of CFTR-mediated short-circuit currents, Assay D (single concentration of 1 μM); settings: with 44 nM potentiator and 18 μM Tezacaftor, 20% human serum
How it was run: (§1)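 Short-circuit current was recorded at 37 °C under voltage clamp (0 mV) with amiloride 30 μM apically, forskolin 20 μM activation, then BPO/GlyH-101/inh-172 (20 μM each) to isolate CFTR current. Before recording, corrector exposure lasted 18–24 h with 18 μM tezacaftor, 20% human serum, and 33 nM (dose–response) or 44 nM (1 μM fixed) potentiator, maintained throughout.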

[3] = target: T1, CFTR (F508del/MF-HBE cells); experiment: Ussing chamber assay of CFTR-mediated short-circuit currents, Assay C (0.026 μM to 25 μM, 6 concentrations); settings: with 33 nM potentiator and 18 μM Tezacaftor, 20% human serum; for Emax: read-out: C Max activity (%)
How it was run: as §1

Row | SMILES | Emax [1] [%] | pEC50 [1] | D act. at 1 μM (%) [2] | pEC50 [3] | Emax [3] [%]
1 | Cc1cccc(C)c1-c1cc2nc(n1)NS(=O)(=O)c1cccc(c1)C(=O)N(Cc1cnc3oc(C(C)C)cc3n1)[C@H](CC1CCCO1)CO2 (single isomer, unassigned) [Compound I-18] | > 60 | > 6.00 |  |  | 
2 | Cc1cccc(C)c1-c1cc2nc(n1)NS(=O)(=O)c1cccc(c1)C(=O)N(Cc1cnc3oc(C(C)C)cc3n1)[C@H](CCC(C)(C)F)CO2 (single isomer, unassigned) [Compound I-36] | > 60 | > 6.00 |  |  | 
3 | Cc1cccc(C)c1-c1cc2nc(n1)NS(=O)(=O)c1cccc(c1)C(=O)N(Cc1cnc3oc(C(C)C)cc3n1)C(COC1CCC1)CO2 (single isomer, unassigned) [Compound I-49, 11-(cyclobutoxymethyl)-6-(2,6-dimethylphenyl)-12-[(6-isopropylfuro[2,3-b]pyrazin-2-yl)methyl]-2,2-dioxo-9-oxa-2λ^6-thia-3,5,12,19-tetrazatricyclo[12.3.1.14,8]nonadeca-1(18),4(19),5,7,14,16-hexaen-13-one] | > 60 | > 6.00 |  |  | 
4 | Cc1cccc(C)c1-c1cc2nc(n1)NS(=O)(=O)c1cccc(c1)C(=O)N(Cc1cnc3cc(C(C)C)n(C)c3n1)[C@H](C[C@@H]1CCCO1)CO2 (stereo in doubt) [Compound I-16] | > 60 | > 6.00 |  |  | 
5 | Cc1cccc(C)c1-c1cc2nc(n1)NS(=O)(=O)c1cccc(c1)C(=O)N(Cc1cnc3oc(C4CC4)cc3n1)[C@H](C[C@H]1CCCCO1)CO2 (stereo in doubt) [Compound I-44] | > 60 | > 6.00 |  |  | 
6 | Cc1cccc(C)c1-c1cc2nc(n1)NS(=O)(=O)c1cccc(c1)C(=O)N(Cc1cnc3oc(C4CC4)cc3n1)[C@@H](COC1CCC1)CO2 (stereo in doubt) [Compound I-58] | > 60 | > 6.00 |  |  | 
7 | Cc1cccc(C)c1-c1cc2nc(n1)NS(=O)(=O)c1cccc(c1)C(=O)N(Cc1cnc3cc(C(C)C)n(C)c3n1)[C@@H](CCC1(C)CC1)CO2 (stereo in doubt) [Compound I-72] | > 60 | > 6.00 |  |  | 
8 | Cc1cccc(C)c1-c1cc2nc(n1)NS(=O)(=O)c1cccc(c1)C(=O)N(Cc1nc3c(cc1F)cc(C(C)C)n3C)[C@@H](COC1CCC1)CO2 (stereo in doubt) [Compound I-84] | > 60 | > 6.00 |  |  | 
9 | Cc1cccc(C)c1-c1cc2nc(n1)NS(=O)(=O)c1cccc(c1)C(=O)N(Cc1cnc3oc(C(C)C)c(C)c3n1)[C@@H](COC1CCC1)CO2 (stereo in doubt) [Compound I-93] | > 60 | > 6.00 |  |  | 
10 | Cc1cccc(C)c1-c1cc2nc(n1)NS(=O)(=O)c1cccc(c1)C(=O)N(Cc1nc3cc(C(C)C)oc3cc1F)[C@@H](COC1CCC1)CO2 (stereo in doubt) [Compound I-95] | > 60 | > 6.00 |  |  | 
11 | Cc1cccc(C)c1-c1cc2nc(n1)NS(=O)(=O)c1cccc(c1)C(=O)N(Cc1cnc3oc(C(C)C)cc3n1)[C@H](CC(C)C)CO2 [Compound I-1] | > 60 | > 6.00 |  |  | 
12 | Cc1cccc(C)c1-c1cc2nc(n1)NS(=O)(=O)c1cccc(c1)C(=O)N(Cc1cnc3oc(C(C)C)cc3n1)[C@H](CCC(C)C)CO2 [Compound I-2] | > 60 | > 6.00 |  |  | 
13 | Cc1cccc(C)c1-c1cc2nc(n1)NS(=O)(=O)c1cccc(c1)C(=O)N(Cc1cnc3cc(C(C)C)n(C)c3n1)[C@H](C[C@H]1CCCCO1)CO2 [Compound I-3] | > 60 | > 6.00 |  |  | 

Further lines, results first:

Row | Emax [1] [%] | pEC50 [1] | D act. at 1 μM (%) [2] | pEC50 [3] | Emax [3] [%] | SMILES
14 | > 60 | > 6.00 |  |  |  | Cc1cccc(C)c1-c1cc2nc(n1)NS(=O)(=O)c1cccc(c1)C(=O)N(Cc1cnc3c(n1)CC(C(C)C)O3)[C@H](CC1(C)CC1)CO2 (single isomer, unassigned) [III-13]
15 |  | > 6.00 |  |  |  | Cc1cccc(C)c1-c1cc2nc(n1)NS(=O)(=O)c1cccc(c1)C(=O)N(Cc1cnc3c(n1)CC(C(C)C)O3)[C@H](CC1(C)CC1)CO2 (single isomer, unassigned) [III-14]
16 |  |  | +++ (+++ is >60%) | 4.52 to 5.52 | > 60 | Cc1cccc(C)c1-c1cc2nc(n1)NS(=O)(=O)c1cccc(c1)C(=O)N(Cc1cnc3oc(CC(C)C)cc3n1)[C@H](CC1(C)CC1)CO2 [IV-24, (11R)-6-(2,6-dimethylphenyl)-12-[(6-isobutylfuro[2,3-b]pyrazin-2-yl)methyl]-11-[(1-methylcyclopropyl)methyl]-2,2-dioxo-9-oxa-2λ^6-thia-3,5,12,19-tetrazatricyclo[12.3.1.14,8]nonadeca-1(18),4(19),5,7,14,16-hexaen-13-one]
17 |  |  | +++ (+++ is >60%) | 4.52 to 5.52 | > 60 | Cc1cccc(C)c1-c1cc2nc(n1)NS(=O)(=O)c1cccc(c1)C(=O)N(Cc1cnc3oc(C4CCOCC4)cc3n1)[C@H](CC1(C)CC1)CO2 [IV-27]
18 |  |  | +++ (+++ is >60%) | 4.52 to 5.52 | > 60 | Cc1cccc(C)c1-c1cc2nc(n1)NS(=O)(=O)c1cccc(c1)C(=O)N(Cc1cnc3oc(-c4ccnn4C)cc3n1)[C@H](CC1(C)CC1)CO2 [IV-30]
19 |  |  | +++ (+++ is >60%) | > 6.00 | > 60 | Cc1cccc(C)c1-c1cc2nc(n1)NS(=O)(=O)c1cccc(c1)C(=O)N(Cc1cnc3cc(C(C)(C)C)n(C)c3n1)[C@@H](C(C(C)C)C(C)C)CO2 [IV-32]
20 |  |  | +++ (+++ is >60%) | 4.52 to 5.52 | > 60 | Cc1cccc(C)c1-c1cc2nc(n1)NS(=O)(=O)c1cccc(c1)C(=O)N(Cc1cnc3oc(C(C)(C)C)cc3n1)[C@@H](C(C1CCC1)C1CCC1)CO2 [IV-33]
21 |  |  | +++ (+++ is >60%) | 5.52 to 6.00 | > 60 | CCC(C)(C)C[C@H]1COc2cc(-c3c(C)cccc3C)nc(n2)NS(=O)(=O)c2cccc(c2)C(=O)N1Cc1cnc2oc(C3CC3)cc2n1 [IV-34]
22 |  |  | +++ (+++ is >60%) | > 6.00 | > 60 | Cc1cccc(C)c1-c1cc2nc(n1)NS(=O)(=O)c1cccc(c1)C(=O)N(Cc1cnc3oc(C(C)(C)C)cc3n1)[C@@H](C(C(C)C)C(C)C)CO2 [IV-36]
23 |  |  | +++ (+++ is >60%) | 5.52 to 6.00 | > 60 | CCC(C)(C)C[C@H]1COc2cc(-c3c(C)cccc3C)nc(n2)NS(=O)(=O)c2cccc(c2)C(=O)N1Cc1cnc2oc(C(C)(C)C)cc2n1 [IV-37]
24 |  |  | +++ (+++ is >60%) | 5.52 to 6.00 | > 60 | Cc1cccc(C)c1-c1cc2nc(n1)NS(=O)(=O)c1cccc(c1)C(=O)N(Cc1ncc3cc(C(C)(C)C)n(C)c3n1)[C@H](CC(C)(C)C)CO2 [IV-38]
25 |  |  | +++ (+++ is >60%) | 5.52 to 6.00 | > 60 | Cc1cccc(COC(C)C)c1-c1nc2nc(c1C)OC[C@@H](CC(C)(C)C)N(Cc1cnc3oc(C4CC4)cc3n1)C(=O)c1cccc(c1)S(=O)(=O)N2 [IV-39]
